Reference: ChEMBL document CHEMBL5537117, “Novel 3-hydroxypyridin-4(1H)-One derivatives as ferroptosis inhibitors with iron-chelating and reactive oxygen species scavenging activities and therapeutic effect in cisplatin-induced cytotoxicity” (Eur J Med Chem, 2024)
Each block holds one molecule with its values, some of them ahead of it. The source made the active and inactive calls. The calls are words filed in the database; no cut-off is given here.

How the values were obtained:
[1] = Antioxidant activity assessed as trolox equivalent of ORAC radical scavenging activity at 4 uM; type: functional
[2] = Cmax in rat at 15 mg/kg, IG measured upto 24 hrs by UPLC-MS analysis; type: ADME, organism-based; conditions: in vivo, po
[3] = AUC (0 to t) in rat at 5 mg/kg, iv measured upto 24 hrs by UPLC-MS analysis; type: ADME, organism-based; conditions: in vivo
[4] = Metal chelating activity assessed as Fe3+ chelation
HEK-293T [5] = assay: Protection against cisplatin-induced cytotoxicity in HEK293T cells assessed as reduction in LPO accumulation at 50 uM measured after 24 hrs by BODIPY-C11 based flow cytometry analysis; type: functional, cell-based; conditions: Homo sapiens
[6] = Clearance in rat at 5 mg/kg, iv measured upto 24 hrs by UPLC-MS analysis; type: ADME, organism-based; conditions: in vivo
[7] = Log K3 of the compound in 0.1M KCl at pH 2.0 to 10.5 by UV absorption method; type: physicochemical
[8] = Antioxidant activity assessed as ABTS radical scavenging activity incubated in dark for 6 mins by absorbance based microplate reader analysis; type: functional
HT-22 [9] = assay: Anti-ferroptotic activity against Erastin-induced ferroptosis in mouse HT-22 cells assessed as reduction in LPO accumulation measured after 24 hrs by BODIPY-C11 based flow cytometry analysis; type: functional, cell-based; conditions: dose 20-100 µM
[10] = MRT (0 to infinity) in rat at 5 mg/kg, iv measured upto 24 hrs by UPLC-MS analysis; type: ADME, organism-based; conditions: in vivo
[11] = Log K1 of the compound in 0.1M KCl at pH 0.9 to 2.1 by UV absorption method; type: physicochemical
[12] = Volume of distribution at steady state in rat at 5 mg/kg, iv measured upto 24 hrs by UPLC-MS analysis; type: ADME, organism-based; conditions: in vivo, read-out: Vdss
[13] = AUC (0 to infinity) in rat at 15 mg/kg, IG measured upto 24 hrs by UPLC-MS analysis; type: ADME, organism-based; conditions: in vivo, po
HEK-293T [14] = assay: Protection against cisplatin-induced cytotoxicity in HEK293T cells assessed as cell viability measured after 24 to 48 hrs by MTT assay; type: functional, cell-based; conditions: Homo sapiens
[15] = Log K2 of the compound in 0.1M KCl at pH 2.0 to 10.5 by UV absorption method; type: physicochemical
HT-22 [16] = assay: Anti-ferroptotic activity against Erastin-induced ferroptosis in mouse HT-22 cells assessed as reduction in LIP level by measuring fluorescence intensity measured after 24 hrs by FeRhoNox-1 based flow cytometry analysis; type: functional, cell-based; conditions: dose 20-100 µM
[17] = Acid dissociation constant, pKa3 of the compound in 0.1M KCl at pH 2.0 to 10.5 by UV absorption method; type: physicochemical
[18] = AUC (0 to infinity) in rat at 5 mg/kg, iv measured upto 24 hrs by UPLC-MS analysis; type: ADME, organism-based; conditions: in vivo
HT-22 [19] = assay: Anti-ferroptotic activity in erastin-induced ferroptosis in mouse HT-22 cells assessed as cell viability incubated for 24 hrs by MTT assay; type: functional, cell-based; conditions: HT-22, 24 h
HEK-293T [20] = assay: Protection against cisplatin-induced cytotoxicity in HEK293T cells assessed as reduction in ROS accumulation at 50 uM measured after 24 hrs by DCFH-DA based flow cytometry analysis; type: functional, cell-based; conditions: Homo sapiens
[21] = Clearance in rat at 15 mg/kg, IG measured upto 24 hrs by UPLC-MS analysis; type: ADME, organism-based; conditions: in vivo, po
[22] = Half life in rat at 15 mg/kg, IG measured upto 24 hrs by UPLC-MS analysis; type: ADME, organism-based; conditions: in vivo, po
[23] = Acid dissociation constant, pKa2 of the compound in 0.1M KCl at pH 2.0 to 10.5 by UV absorption method; type: physicochemical
[24] = Cmax in rat at 5 mg/kg, iv measured upto 24 hrs by UPLC-MS analysis; type: ADME, organism-based; conditions: in vivo
[25] = Antioxidant activity assessed as trolox equivalent of ORAC radical scavenging activity at 8 uM; type: functional
[26] = Volume of distribution at steady state in rat at 15 mg/kg, IG measured upto 24 hrs by UPLC-MS analysis; type: ADME, organism-based; conditions: in vivo, po
HEK-293T [27] = assay: Protection against cisplatin-induced cytotoxicity in HEK293T cells assessed as reduction in attenuation of intracellular Fe2+ at 30 to 80 uM measured after 24 hrs by FeRhoNox-1 based flow cytometry analysis; type: functional, cell-based; conditions: Homo sapiens, dose 30-80 µM
[28] = Tmax in rat at 5 mg/kg, iv measured upto 24 hrs by UPLC-MS analysis; type: ADME, organism-based; conditions: in vivo
[29] = MRT (0 to infinity) in rat at 15 mg/kg, IG measured upto 24 hrs by UPLC-MS analysis; type: ADME, organism-based; conditions: in vivo, po
[30] = Tmax in rat at 15 mg/kg, IG measured upto 24 hrs by UPLC-MS analysis; type: ADME, organism-based; conditions: in vivo, po
[31] = Oral bioavailability in rat at 15 mg/kg, IG measured upto 24 hrs by UPLC-MS analysis; type: ADME, organism-based; conditions: in vivo
[32] = Half life in rat at 5 mg/kg, iv measured upto 24 hrs by UPLC-MS analysis; type: ADME, organism-based; conditions: in vivo
HT-22 [33] = assay: Anti-ferroptotic activity against Erastin-induced ferroptosis in mouse HT-22 cells assessed as reduction in ROS accumulation measured after 24 hrs by DCFH-DA based flow cytometry analysis; type: functional, cell-based; conditions: dose 20-100 µM
HT-22 [34] = assay: Cytotoxicity against mouse HT-22 cells assessed as reduction in cell viability at 150 uM by MTT assay relative to control; type: toxicity, cell-based; conditions: ht-22, 150 µM
[35] = AUC (0 to t) in rat at 15 mg/kg, IG measured upto 24 hrs by UPLC-MS analysis; type: ADME, organism-based; conditions: in vivo, po
[36] = Acid dissociation constant, pKa1 of the compound in 0.1M KCl at pH 2.0 to 10.5 by UV absorption method; type: physicochemical
HT-22 [37] = assay: Anti-ferroptotic activity against Erastin-induced ferroptosis in mouse HT-22 cells assessed as inhibition of LPO accumulation at 0.2 uM measured after 24 hrs by BODIPY-C11 based flow cytometry analysis relative to control; type: functional; set-up: scale not given: the % may be the effect or the level left

Cmax [2]: 24.1 ng/mL | AUC(0-t) at 24 h [3]: 364 ng·h/mL | Activity [4]: 18.6 | CL [6]: 0.33 mL/min/kg | log(activity) [7]: 36.22 | IC50 [8]: 4.35 µM | MRT inf [10]: 2.34 h | log(activity) [11]: 14.67 | Vd [12]: 0.07 L/kg | AUC [13]: 136.25 ng·h/mL | log(activity) [15]: 26.56 | pKa [17]: 10.1 | AUC [18]: 365.99 ng·h/mL | CL [21]: 2.33 mL/min/kg | half-life [22]: 5.83 h | pKa [23]: 6.78 | Cmax [24]: 472 ng/mL | Vdss [26]: 1.42 L/kg | Tmax [28]: 8.4 min | MRT inf [29]: 8.22 h | Tmax [30]: 0.19 h | bioavailability [31]: 8.06% | half-life [32]: 3.74 h | AUC(0-t) at 24 h [35]: 120 ng·h/mL | pKa [36]: 2.32
Structure (SMILES): Cc1c(O)c(=O)ccn1NC(=O)/C=C/c1cccc(F)c1
Activity [1]: 23.8 | Activity (HEK-293T [5]): Active | Activity (HT-22 [9]): Dose-Dependent Effect | EC50 (HEK-293T [14]): 24.9 µM | Activity (HT-22 [16]): Dose-Dependent Effect | EC50 (HT-22 [19]): 14.9 µM | Activity (HEK-293T [20]): Active | Activity [25]: 36 | Activity (HEK-293T [27]): Active | Activity (HT-22 [33]): Dose-Dependent Effect | Activity (HT-22 [34]): > 80%

IC50 [8]: 6.27 µM
Structure (SMILES): CCOC(=O)c1ccc(NC2CCCCC2)c(N)c1
Activity [1]: 6.53 | EC50 (HEK-293T [14]): 5.69 µM | Activity (HT-22 [37]): 100% | Activity (HT-22 [16]): inactive | EC50 (HT-22 [19]): 0.191 µM | Activity [25]: 9.43
